Experimental data taken from PMC7143510, “In Vitro Efficiency of Antimicrobial Peptides against Staphylococcal Pathogens Associated with Canine Pyoderma” (Animals : an Open Access Journal from MDPI, 2020).
Where no end group is shown, it is not given here.

Assays:
[1] = system: canine S. pseudintermedius strains; experiment: MIC, broth microdilution (CLSI); type: cell-based, Staphylococcus pseudintermedius
Procedure: (§1) Sixty-six well-characterized staphylococcal strains (60 S. pseudintermedius and 6 S. aureus strains) were selected from the archived previously described collection. This study was conducted based on a retrospective analysis of staphylococcal canine strains isolated and archived at the Laboratory of Department of Medical Microbiology of MUG during routine clinical laboratory procedures. All samples were routinely collected by a veterinarian during the course of infection treatment or control visits, not specifically for this research. The animals were swabbed only after the owner’s consent was given, as we stated in the previous published study.
(§2) Staphylococcal strains were classified as multidrug-resistant (MDR) when they were not susceptible to at least one agent in three different classes of antimicrobials. Sixty examined S. pseudintermedius strains included thirty multidrug-resistant strains (MDRSP) and seven methicillin-resistant strains (MRSP). Six canine S. aureus strains, including three multidrug-resistant strains (MDRSA). S. pseudintermedius strains, including MDRSP (n = 30) and MRSP (7) strains, were resistant to: amoxicillin (61.6%), clindamycin (48.3%), erythromycin (45%), gentamicin (33.3%), chloramphenicol (26.6%), sulfamethoxazole/trimethoprim (25%), tetracycline (20%), cefadroxil (11.6%), oxacillin (11.6%) and ciprofloxacin (10%). Six S. aureus strains, including MDRSA (n = 3), were resistant to: amoxicillin (3/6), erythromycin (3/6), gentamicin (3/6), clindamycin (2/6), chloramphenicol (1/6), sulfamethoxazole/trimethoprim (1/6) and doxycycline (1/6). The following reference strains were used: S. aureus ATCC 6538 (MSSA), S. aureus ATCC 43300 (MRSA), S. intermedius PCM 2405. Both the reference- and clinical strains were stored at −80 °C in Tryptic Soy Broth (TSB, Becton–Dickinson, USA) supplemented with 15% glycerol.
(§3) The antimicrobial susceptibility of each strain to the tested peptides was determined using the minimal inhibitory concentrations (MIC) microdilution method as recommended by the Clinical Laboratory Standards Institute (CLSI) guidelines. Briefly, the staphylococcal strains were grown overnight on a Columbia blood agar (Graso Biotech, Poland) at 37 °C. Isolated colonies were suspended in saline solution and adjusted to a 0.5 McFarland standard. The bacterial suspension was diluted ~ 1:100 to a final concentration of 1 × 10^6 colony forming units (cfu/mL). Two-fold serial dilutions of each tested peptide in Mueller–Hinton Broth 2 (Sigma–Aldrich) were added (100 µL) to polypropylene 96-well plates containing bacterial inoculum (100 µL) and were incubated at 37 °C for 18 h. All clinical and reference strains were tested in duplicate. Bacterial growth was assessed visually after incubation and MIC was recorded as the lowest drug concentration at which an observable growth was inhibited. The MIC50 and MIC90 values were defined as the lowest concentrations of peptides at which 50% and 90% of the strains were inhibited, respectively.

[2] = system: canine S. pseudintermedius strains; experiment: MBC, subculture from MIC assay; type: cell-based, Staphylococcus pseudintermedius; conditions: 48 h
Procedure: (§4) The loopful (10 µl) of the tested sample was transferred to Triptic Soy Broth (TSB, BD Difco) and incubated at 37 °C for 48 h. MBC was taken as the lowest concentration of each peptide at which staphylococcal colonies were no longer viable on the subculture.

canine S. aureus strains [3] = experiment: MBC, subculture from MIC assay; type: cell-based, Staphylococcus aureus; conditions: 48 h
Procedure: as §4

canine S. aureus strains [4] = experiment: MIC, broth microdilution (CLSI); type: cell-based, Staphylococcus aureus
Procedure: as §1, §2, §3

[5] = canine S. pseudintermedius (I), 60 strains, Mueller–Hinton Broth 2, 1 × 10^6 cfu/mL, 37 °C, 18 h, visual, duplicate
[6] = canine S. pseudintermedius (I), 60 strains, lowest concentration inhibiting 50% of strains
[7] = canine S. pseudintermedius (I), 60 strains, lowest concentration inhibiting 90% of strains
[8] = canine S. pseudintermedius (I), 60 strains, 10 µl subcultured in TSB, 37 °C
[9] = canine S. aureus (II), 6 strains, 10 µl subcultured in TSB, 37 °C
[10] = canine S. aureus (II), 6 strains, Mueller–Hinton Broth 2, 1 × 10^6 cfu/mL, 37 °C, 18 h, visual, duplicate
[11] = canine S. aureus (II), 6 strains, lowest concentration inhibiting 50% of strains
[12] = canine S. aureus (II), 6 strains, lowest concentration inhibiting 90% of strains

Row | Substance | MIC50 ([1]; 18 h) [µg/mL] | MIC90 ([1]; 18 h) [µg/mL] | MIC Median (IQR) ([1]; 18 h) | MBC Median (IQR) [2] | MBC Median (IQR) (canine S. aureus strains [3]; canine strains) | MIC50 (canine S. aureus strains [4]; canine strains, 18 h) [µg/mL] | MIC90 (canine S. aureus strains [4]; canine strains, 18 h) [µg/mL] | MIC Median (IQR) (canine S. aureus strains [4]; canine strains, 18 h) | MIC Median (IQR) [1, 5] | MIC50 [1, 6] [µg/mL] | MIC90 [1, 7] [µg/mL] | MBC Median (IQR) [2, 8] | MBC Median (IQR) (canine S. aureus strains [3]; [9]) | MIC Median (IQR) (canine S. aureus strains [4]; [10]) | MIC50 (canine S. aureus strains [4]; [11]) [µg/mL] | MIC90 (canine S. aureus strains [4]; [12]) [µg/mL]
1 | FLPLIGRVLSGIL-NH2 [Temporin A] | 8 | 8 | 8 (4–8) µg/mL | 8 (8–8) µg/mL | 8 (8–14) µg/mL | 8 | 8 | 8 (8–8) µg/mL | – | – | – | – | – | – | – | –
2 | GIGKFLKKAKKFGKAFVKILKK-NH2 [Pexiganan] | 4 | 4 | 4 (2–4) µg/mL | 4 (2–4) µg/mL | 8 (8–8) µg/mL | 4 | 8 | 6 (4–8) µg/mL | – | – | – | – | – | – | – | –
3 | GLFDIIKKIAESF-NH2 [Aurein 1.2] | – | – | – | – | – | – | – | – | 32 (32–32) µg/mL | 32 | 32 | 64 (64–64) µg/mL | 128 (128–224) µg/mL | 128 (128–128) µg/mL | 128 | 256
4 | GLFDVIKKVASVIGGL-NH2 [Citropin 1.1] | 4 | 4 | 4 (4–4) µg/mL | 4 (4–4) µg/mL | 12 (8–16) µg/mL | 8 | 16 | 8 (8–14) µg/mL | – | – | – | – | – | – | – | –
5 | GVIDAAKKVVNVLKNLF-NH2 [Uperin 3.6] | 2 | 2 | 2 (2–2) µg/mL | 2 (2–4) µg/mL | 16 (16–16) µg/mL | 8 | 16 | 8 (8–14) µg/mL | – | – | – | – | – | – | – | –
6 | KWKLFKKIGAVLKVL-NH2 [CAMEL] | – | – | – | – | – | – | – | – | 2 (2–4) µg/mL | 2 | 4 | 4 (2–4) µg/mL | 4 (4–4) µg/mL | 4 (4–4) µg/mL | 4 | 4
